This is an account of results in patent US20040102365A1, “Pharmaceutical composition for prevention and remedy of osteoporosis” (priority 2003, published 2004).

For assay [1], the system named is osteoclasts. Briefly: Pit formation assay (bone resorption by osteoclasts on bone fragments). Set-up: Inhibitory Activity versus pit formation: unit not given here. Type of assay: cell-based, mouse. As for the experimental part:
Since most osteoclasts growing on bone surfaces have the ability to absorb bone, leaving pits, whether the osteoclasts prepared in Example 1 have bone resorption ability or was not determined by analyzing the number and volume of pits.
Bone fragments were prepared in a thickness of 1 mm, put in methanol, disinfected under UV light on a clean bench, and then transferred to wells of a 96-well plate, after which 100 μl α-MEM medium (10% FCS) was added. […] After incubation for 1 day, bone fragments and osteoclasts growing on them were observed micoscopically and then stored at 4° C.

Assay [2] concerns osteoclasts. Briefly: Effect on the morphology and survival of osteoclasts. Type of assay: cell-based, mouse.
Assay [3] deals with osteoclasts. Briefly: Actin ring assay. Type of assay: cell-based, mouse. The procedure: In order to observe the formation and shape of actin rings, which function to support the cytoskeleton structure of osteoclasts, an actin ring assay was performed. After removing culture medium, osteoclasts cultured in the presence or absence of destruxin E were fixed with formalin for 10 mins, washed once with a solution containing Tween 20, and treated with 300 U rhodamine phalloidin (Sigma, USA) dissolved in methanol in a dark room.

The subject of assay [4] is ^45Ca-labelled fetal radius and ulna, organ culture. The assay is described as follows: Inhibition of ^45Ca release in mouse organ culture (PTH-induced calcium release). Type of assay: cell-based, ddY mice. The procedure: 15 to 16 days pregnant ddY mice were injected subtaneously with a solution of ^45Ca-labelled calcium chloride to label their bone. After one day, mice were anesthetized with ether, and disinfected in 70% ethanol. Fetuses were obtained from, and transferred to a sterile dish. Under a stereo microscope, after cutting forelegs and peeling off skin thereof, attached muscle was removed from radius and ulna, and cartilage portions existing at the both ends of the two bones were then obtained. During the preparation, the bones were kept moist. Before culturing, a stainless steel membrane was put into a 24-well plate containing 0.5 mL BGJb medium (Gibco, USA), and the obtained bone was then placed onto the membrane. After incubation for 24 hours, bone was transferred to destruxin E-containing medium and further incubated for 72 hours. Herein, parathyroid hormone (PTH) inducing release of calcium was used, and the inhibitory effect of destruxin E on the calcium release by PTH was analyzed. The amounts of ^45Ca remaining in bone and released to medium were measured using 5% TCA, and bone-resorbing activity was calculated as follows.
Bone-resorbing activity=released amount of ^45Ca to medium/(released amount of ^45Ca to medium+amount of ^45Ca remaining in bone)×100

pIC50: −log10 of the molar value. Where a SMILES comes first, the peptide text is derived from it. [ ]: non-standard residue; d: D form. dLac(3-vinyl) = C=CC[C@@H](O)C(=O)O; dHica = CC(C)C[C@@H](O)C(=O)O; NMeV = CN[C@H](C(=O)O)C(C)C; NMeA = CN[C@@H](C)C(=O)O; βAla = NCCC(=O)O

The pIC50 is −log10 of the IC50, conventionally taken in molar units. For the molecule `CC[C@H](C)[C@@H]1NC(=O)[C@@H]2CCCN2C(=O)[C@@H](CC(C)C)OC(=O)CCNC(=O)[C@H](C)N(C)C(=O)[C@H](C(C)C)N(C)C1=O` [Destruxin B] (cyclo([dHica]PI[NMeV][NMeA][βAla])), the “Inhibitory Activity versus pit formation” value in the assay with osteoclasts [1] (0.1 μM destruxin B) stood at 25; with osteoclasts [1] (0.5 μM destruxin B), 71; in the assay with osteoclasts [1] (1 μM destruxin B), 94; with osteoclasts [1] (5 μM destruxin B), 100. The results for the pIC50 in the assay on osteoclasts [1] (read-out: 50% inhibition (IC50) of pit formation) and with osteoclasts [3] (read-out: 50% inhibition (IC50) of actin ring formation) were 6.70 and 6.22, respectively. The “MIC: Minimum Inhibitory Concentration at which survival of all osteoclasts is inhibited” value against osteoclasts [2] came to 10 µM. Also, the “Inhibitory Activity versus actin ring (%)” value with osteoclasts [3] (0.1 μM destruxin B) is on record as 12%; with osteoclasts [3] (0.5 μM destruxin B) it was 41%; with osteoclasts [3] (1 μM destruxin B), 92%; in the assay on osteoclasts [3] (5 μM destruxin B), 100%.

In the case of `C=CC[C@H]1OC(=O)CCNC(=O)[C@H](C)N(C)C(=O)[C@H](C(C)C)N(C)C(=O)[C@H]([C@@H](C)CC)NC(=O)[C@@H]2CCCN2C1=O` [Destruxin A] (cyclo([dLac(3-vinyl)]PI[NMeV][NMeA][βAla])), the “MIC: Minimum Inhibitory Concentration at which survival of all osteoclasts is inhibited” value against osteoclasts [2] amounted to 20 µM.

Regarding eel calcitonin, the “Inhibitory effect on ^45Ca release, destruxin E compared with eel calcitonin” value in assay [4] is “the inhibitory effect of destruxin E is higher than that of eel calcitonin”.
